Key:
[1] = test system: ALT or AST; experiment: Study B: postbaseline hepatic laboratory parameters (ALT or AST, potential Hy's Law); format: in vivo, human; details: atogepant 60 mg QD or standard of care, safety population
Text: Cases of alanine aminotransferase/aspartate aminotransferase (ALT/AST) levels ≥3 times the upper limit of normal were reported for 2.4% of participants (n=13/531) treated with atogepant and 3.2% for standard-of-care (n=6/190). No cases of potential Hy's Law were reported. Table 24 provides postbaseline hepatic laboratory parameter values of clinical interest for the safety population.

[2] = test system: participants with episodic migraine; experiment: Study C: 40-week open-label extension, safety and tolerability of atogepant 60 mg once daily; format: in vivo, human
Experimental: An open-label extension study for trial completers evaluated the long-term safety and tolerability of oral atogepant 60 mg daily for the prevention of migraine in participants with episodic migraine.
Participants in this trial (Study C) rolled over from the lead in trial (Study A) and were treated with atogepant 60 mg once daily for 40-weeks, with a 4-week safety follow-up period. Only safety data were collected.
Of 695 participants screened, a total of 685 participants took at least one dose of study medication and were included in the safety population. Overall, the mean age was 41.8 years. Female participants accounted for 88.2% of the Safety Population. White and Black or African American patients accounted for 84.4% and 12.6%, respectively. Mean BMI was 30.58 kg/m2.

[3] = Atogepant 60 mg QD, Safety Population N = 685

## C[C@@H]1[C@H](c2c(F)ccc(F)c2F)C[C@H](NC(=O)c2cnc3c(c2)C[C@@]2(C3)C(=O)Nc3ncccc32)C(=O)N1CC(F)(F)F [atogepant]
[1]
  Potential Hy's Law (ALT or AST ≥ 3 × ULN and Bilirubin Total ≥ 2 × ULN and ALP < 2 × ULN), n/N1 (%): (0.0) %
[1]; postbaseline
  ALT or AST ≥1 × ULN, n/N1 (%): (21.1) %
  ALT or AST ≥1.5 × ULN, n/N1 (%): (8.7) %
  ALT or AST ≥2 × ULN, n/N1 (%): (4.9) %
  ALT or AST ≥3 × ULN, n/N1 (%): 2.4%
  ALT or AST ≥5 × ULN, n/N1 (%): (1.3) %
  ALT or AST ≥10 × ULN, n/N1 (%): (0.6) %
  ALT or AST ≥20 × ULN, n/N1 (%): (0.0) %
[1]; postbaseline, listed as Atogepant
  ALT or AST ≥3 × ULN, n/N1 (%): (2.4) %
[2]; 60 mg once daily, 40 weeks
  deaths observed: No deaths
[2]; [3]
  TEAE by Preferred Term: Corona virus infection: 15 (2.2) n (%)
  TEAE by Preferred Term: Influenza: 17 (2.5) n (%)
[2]; atogepant 60 mg once daily, 40 weeks, Safety Population N = 685
  Deaths, participants: (0.0) %
